Data from US20090042810A1, “AMPK Deficient Animals, Screening Methods, And Related Therapeutics And Diagnostics” (GenExel-Sein, Inc., priority 2007, published 2009).
Entries after “also recorded” stand apart in the source; their conditions may differ.

Tests used:
[1] = tested on: human MLCK; assay: In vitro kinase assay, active MLCK with MRLC substrate; assay type: biochemical; settings: 10 μM drug added to reaction solution
From the text: (§1) Fly strains. AMPK^D1 and AMPKD2 lines were generated by imprecise excision (Lee, et al., FEBS Lett. 550, 5-10 (2003)) of AMPK^G505 line (GenExel Inc.). UAS constructs were microinjected into w^1118 embryos. LKB1- and MRLC-mutant lines were described previously (Jordan et al., J. Cell Biol. 139, 1805-1819 (1997); (Karess et al., Cell 65, 1177-1189 (1991); (Lee et al., Cell Death Differ. 13, 110-1122 (2006)). Other lines were obtained from the Bloomington Stock Center. Microscopic analyses of Drosophila tissues. Dark field, phase contrast, and SEM analyses were performed to visualize embryonic cuticle structure. Immunostaining with various antibodies were performed to visualize embryonic epithelial structure. Brain squash preparation was used to analyze genomic integrity. Kinase assays. Phosphotransferase activities were determined in a reaction mixture consisting of HEPES-Brij Buffer, ATP (γ-^32P), and protein substrates. Protein levels were visualized by immunoblot or Coomassie staining. Phosphorylated proteins were visualized by phospho-specific immunoblot or ^32P-autoradiography. Incorporated phosphates were quantified using P81 filter binding assay. Drosophila strains. […] Deletion sites of AMPK^D1 and AMPK^D2 were determined by genomic-PCR analyses. […]

[2] = tested on: Drosophila AMPK (dAMPK); assay: In vitro kinase assay, immunoprecipitated Drosophila AMPK with MRLC substrate; assay type: biochemical; settings: 10 μM drug added to reaction solution
From the text: as §1

[3] = tested on: AMPK holoenzyme purified from rat liver; assay: In vitro kinase assay, AMPK holoenzyme purified from rat liver with GST-MRLC / GST-ACC2 substrates; assay type: biochemical; settings: 0.3 mM AMP; for Phosphorylation of MRLC by AMPK in presence of inhibitor (32P autoradiography): 10 μM drug added to reaction mixture, GST-MRLC substrate
From the text: Fly strains. AMPK^D1 and AMPKD2 lines were generated by imprecise excision (Lee, et al., FEBS Lett. 550, 5-10 (2003)) of AMPK^G505 line (GenExel Inc.). UAS constructs were microinjected into w^1118 embryos. LKB1- and MRLC-mutant lines were described previously (Jordan et al., J. Cell Biol. 139, 1805-1819 (1997); (Karess et al., Cell 65, 1177-1189 (1991); (Lee et al., Cell Death Differ. 13, 110-1122 (2006)). Other lines were obtained from the Bloomington Stock Center. Microscopic analyses of Drosophila tissues. Dark field, phase contrast, and SEM analyses were performed to visualize embryonic cuticle structure. Immunostaining with various antibodies were performed to visualize embryonic epithelial structure. Brain squash preparation was used to analyze genomic integrity. Kinase assays. Phosphotransferase activities were determined in a reaction mixture consisting of HEPES-Brij Buffer, ATP (γ-^32P), and protein substrates. Protein levels were visualized by immunoblot or Coomassie staining. Phosphorylated proteins were visualized by phospho-specific immunoblot or ^32P-autoradiography. Incorporated phosphates were quantified using P81 filter binding assay. Drosophila strains. The AMPK^G505 fly line with an EP-element inserted at the AMPK locus was obtained from the Genisys Collection of EP lines (GenExel Inc., Korea), and subjected to standard imprecise excision (Lee, et al., FEBS Lett. 550, 5-10 (2003); (Lee et al., Cell Death Differ. 13, 110-1122 (2006)). HA-tagged AMPK (AMPK^WT) and its mutant forms (AMPK^KR, AMPK^TA and AMPK^TD) were subcloned into the pUAST vector and microinjected into w^1118 embryos. LKB1^X5, UAS-LKB1, spaghetti-squash^1 (sqh^1), and MRLC^EE (also referred to as sqh^EE) lines were described previously (Jordan et al., J. Cell Biol. 139, 1805-1819 (1997); (Karess et al., Cell 65, 1177-1189 (1991); (Lee et al., Cell Death Differ. 13, 110-1122 (2006)). […] Deletion sites of AMPK^D1 and AMPK^D2 were determined by genomic-PCR analyses. […]

[4] = tested on: LS174T cells; assay: AMPK and MRLC phosphorylation in LS174T cells (immunoblot / immunostaining); assay type: cell-based, human
[5] = tested on: LS174T cells; assay: Polarization of LS174T cells (actin, polarity markers, brush border); assay type: cell-based, human
[6] = tested on: human AMPK (hAMPK); assay: In vitro kinase assay, immunoprecipitated human AMPK with MRLC substrate; assay type: biochemical; settings: 10 μM drug added to reaction solution
From the text: as §1

[7] = tested on: Drosophila S2 cells; assay: Energy deprivation-induced MRLC phosphorylation in Drosophila S2 cells (immunoblot); assay type: cell-based; settings: 50 mM 2DG for 4 hr

O=S(=O)(c1cccc2c(I)cccc12)N1CCCNCC1 [ML-7]
MLCK phosphorylation of MRLC in presence of drug [1]: specifically inhibited
Drosophila AMPK phosphorylation of MRLC in presence of drug [2]: not
Phosphorylation of MRLC by AMPK in presence of inhibitor (32P autoradiography) [3]: did not

c1cc(-c2cnn3cc(-c4ccc(OCCN5CCCCC5)cc4)cnc23)ccn1 [Compound C]
MLCK phosphorylation of MRLC in presence of drug [1]: not
Drosophila AMPK phosphorylation of MRLC in presence of drug [2]: specifically inhibited
Phosphorylation of MRLC by AMPK in presence of inhibitor (32P autoradiography) [3]: inhibited the phosphorylation
2DG-induced MRLC phosphorylation, effect of inhibitor ([4]; 10 μM Compound C 30 min before 50 mM 2DG): suppressed
2DG-induced actin polarization, effect of inhibitor or siRNA ([5]; 2DG 2 hr, Compound C 10 μM 30 min before 2DG, or siRNA transfection, listed as CC): inhibited; also recorded: suppressed
Human AMPK phosphorylation of MRLC in presence of drug [6]: specifically inhibited

O=CC[C@@H](O)[C@H](O)[C@H](O)CO [2DG, 2-deoxyglucose]
MRLC phosphorylation (pMRLC) in S2 cells [7]: enhanced MRLC phosphorylation
Activation of AMPK (pAMPK) ([4]; 50 mM 2DG, indicated time): activation of AMPK
MRLC phosphorylation (pMRLC) in LS174T cells ([4]; 2DG treatment): 2DG-induced phosphorylation of MRLC
Distribution of villin, CD66/CEA and CD71/transferrin markers ([5]; 50 mM 2DG, 2 hr): became dramatically polarized
Cell shape / actin cytoskeleton polarization and brush border-like structure ([5]; 50 mM 2DG, 2 hr, serum-free media): dramatic change in cell shape to have polarized actin cytoskeleton with a brush border-like structure

Nc1ncnc2c1ncn2[C@@H]1O[C@H](COP(=O)(O)O)[C@@H](O)[C@H]1O [AMP]
Phosphorylation of full-length MRLC by AMPK on addition of AMP ([3]; human GST-MRLC substrate): further enhanced
